Structures can show the parent of a compound that is named as a salt. Where two headings read alike, the source gives them in different places.
Experiments:
[1] = biological target: T1, SARS-CoV-2 PLpro (nsp3 1564–1878) (Severe acute respiratory syndrome coronavirus 2, UniProt P0DTD1); assay: biochemical; set-up: FRET-quenched peptide (Pro3) cleavage by PLpro, 10 min pre-incubation, slope over 20 min, normalised to no-compound control; details: high concentration screen, read-out: % of control remaining
Protocol: The plates were organized with columns 3–22 containing the compounds; the remaining columns were used for reaction controls including substrate only and substrate with enzyme but no compound (Figure 3Aii). The PLpro enzyme was pre-incubated with the compounds for 10 min, and then the reaction was initiated by the addition of substrate. […] We incubated the inhibitors with PLpro before the enzymatic reaction so that the slow-binding inhibitors will not be missed out [21]. […] Fluorescence was read on a Spark multimode microplate reader (Tecan) with an excitation wavelength at 330 nm and emission wavelength at 420 nm. […] An amount of 5 µl of the enzyme was pre-incubated with compounds for 10 min before the addition of 15 µl substrate. Fluorescence was monitored at 2 min for 20 min with 3 min intervals giving a total of seven readings.

[2] = biological target: T1, SARS-CoV-2 PLpro (nsp3 1564–1878); assay: biochemical; set-up: FRET-quenched peptide (Pro3) cleavage by PLpro, 10 min pre-incubation, slope over 20 min, normalised to no-compound control; details: low concentration screen, read-out: % of control remaining

CCOc1cc(N)c(Cl)cc1C(=O)NCC1CN(Cc2ccc(F)cc2)CCO1 (stereo not shown) [Mosapride citrate] was tested, and the remaining activity at 3.75 µM ([1]; Well no.=4807) was 103% and the remaining activity at 1.25 µM ([2]; Well no.=4807) was 101%.
Compound C[C@H]1C(=O)O[C@@H]2CCN3CC=C(COC(=O)[C@](C)(O)[C@]1(C)O)[C@H]23 [Monocrotaline] has a remaining activity at 3.75 µM ([1]; Well no.=3777) of 103% and a remaining activity at 1.25 µM ([2]; Well no.=3777) of 102%.
Cc1cc(NC(=O)NCCN2CCC(O)(Cc3ccccc3)CC2)c2ccccc2n1 [Palosuran] showed a remaining activity at 3.75 µM ([1]; Well no.=7915) of 92.5% and a remaining activity at 1.25 µM ([2]; Well no.=7915) of 105%.
OCc1cc(C(O)CNCCCCCCOCCCCc2ccccc2)ccc1O (stereo not shown) [Salmeterol] showed a remaining activity at 3.75 µM ([1]; Well no.=1414) of 99.5% and a remaining activity at 1.25 µM ([2]; Well no.=1414) of 98.7%.
CS(=O)(=O)CCNCc1ccc(-c2ccc3ncnc(Nc4ccc(OCc5cccc(F)c5)c(Cl)c4)c3c2)o1 [Lapatinib ditosylate] was tested, and the remaining activity at 3.75 µM ([1]; Well no.=1714) was 105% and the remaining activity at 1.25 µM ([2]; Well no.=1714) was 105%.
For Cc1[nH]c2ccccc2c1CCNC(=O)c1cccs1 [CK-636], the remaining activity at 3.75 µM ([1]; Well no.=5636) was 100% and the remaining activity at 1.25 µM ([2]; Well no.=5636) was 102%.
Compound O=C(CBr)N1CC([N+](=O)[O-])([N+](=O)[O-])C1 [RRx-001] has a remaining activity at 3.75 µM ([1]; Well no.=8632) of 98.9% and a remaining activity at 1.25 µM ([2]; Well no.=8632) of 105%.
O=c1[nH]c(=O)n([C@H]2C[C@H](O)[C@@H](CO)O2)cc1I [Idoxuridine] was tested, and the remaining activity at 3.75 µM ([1]; Well no.=2218) was 102%, the remaining activity at 3.75 µM ([1]; Well no.=8851) was 107% and the remaining activity at 1.25 µM ([2]; Well no.=2218) was 98.6%. It also gave a remaining activity at 1.25 µM ([2]; Well no.=8851) of 105%.
CNC[C@H](O)c1ccc(O)c(O)c1 [(-)-Epinephrine bitartrate] showed a remaining activity at 3.75 µM ([1]; Well no.=509) of 99.3% and a remaining activity at 1.25 µM ([2]; Well no.=509) of 102%.
COC(=O)c1cc2c(cn1)[nH]c1ccccc12 [Methyl beta-carboline-3-carboxylate] was tested, and the remaining activity at 3.75 µM ([1]; Well no.=607) was 98.2% and the remaining activity at 1.25 µM ([2]; Well no.=607) was 95.4%.
O=c1cc(-c2ccc(O)cc2)oc2cc(O)cc(O)c12 [Apigenin] showed a remaining activity at 3.75 µM ([1]; Well no.=299) of 93.2%, a remaining activity at 3.75 µM ([1]; Well no.=3234) of 94.9% and a remaining activity at 3.75 µM ([1]; Well no.=3909) of 96.7%. The remaining activity at 1.25 µM ([2]; Well no.=299) was 93.8%, the remaining activity at 1.25 µM ([2]; Well no.=3234) was 99.1% and the remaining activity at 1.25 µM ([2]; Well no.=3909) was 101%.
OC[C@H]1OC(O)[C@H](O)[C@@H](O)[C@@H]1O (stereo partly shown) [Dextrose] showed a remaining activity at 3.75 µM ([1]; Well no.=6497) of 99.3% and a remaining activity at 1.25 µM ([2]; Well no.=6497) of 97.3%.
For CC(/C=C/c1cccc(Oc2ccc(F)cc2)c1)N(O)C(N)=O (stereo not shown) [BWB70C], the remaining activity at 3.75 µM ([1]; Well no.=221) was 102% and the remaining activity at 1.25 µM ([2]; Well no.=221) was 103%.
With Nc1ccc(CNc2ncnc3c2ncn3[C@@H]2O[C@H](CO)[C@@H](O)[C@H]2O)cc1 [N-[(4-Aminophenyl)methyl]adenosine] the remaining activity at 3.75 µM ([1]; Well no.=8319) was 100%, the remaining activity at 3.75 µM ([1]; Well no.=8895) was 99.6% and the remaining activity at 1.25 µM ([2]; Well no.=8319) was 104%. The remaining activity at 1.25 µM ([2]; Well no.=8895) was 102%.
Work on COc1cc(/C=C/C(=O)N2CCN(CC(=O)N3CCCC3)CC2)cc(OC)c1OC [Cinepazide maleate] yielded a remaining activity at 3.75 µM ([1]; Well no.=5271) of 96.6% and a remaining activity at 1.25 µM ([2]; Well no.=5271) of 95.9%.
With S=C(S)OC1CC2CC1C1CCCC21 (mixture of isomers) [D-609 potassium] the remaining activity at 3.75 µM ([1]; Well no.=1374) was 99% and the remaining activity at 1.25 µM ([2]; Well no.=1374) was 99.3%.
O=c1c(-c2ccc(F)cc2)c(-c2ccncc2)[nH]n1-c1ccc(Cl)cc1 [p38 MAP Kinase Inhibitor] gave a remaining activity at 3.75 µM ([1]; Well no.=2598) of 99.2% and a remaining activity at 1.25 µM ([2]; Well no.=2598) of 97.4%.
With NC(=O)N1c2ccccc2C=Cc2ccccc21 [Carbamazepine] the remaining activity at 3.75 µM ([1]; Well no.=270) was 94.9%, the remaining activity at 3.75 µM ([1]; Well no.=2215) was 95.8% and the remaining activity at 1.25 µM ([2]; Well no.=270) was 96.8%. For the same compound, the remaining activity at 1.25 µM ([2]; Well no.=2215) was 97.8%.
CCc1c(C(=O)NCCc2ccc(N3CCCCC3)cc2)[nH]c2ccc(Cl)cc12 [Org 27569] was tested, and the remaining activity at 3.75 µM ([1]; Well no.=6238) was 105% and the remaining activity at 1.25 µM ([2]; Well no.=6238) was 103%.
Compound Cc1nc2cc3nc(-c4cccs4)cnc3cc2n1C [AGL 2043] has a remaining activity at 3.75 µM ([1]; Well no.=2309) of 103% and a remaining activity at 1.25 µM ([2]; Well no.=2309) of 104%.
For CCCCC/C=C\C/C=C\C/C=C\C/C=C\CCCC(=O)O[C@@H](CO)COC(=O)CCCCCCCCCCCCCCCCC [1-Stearoyl-2-arachidonoyl-glycerol], the remaining activity at 3.75 µM ([1]; Well no.=4482) was 96.2% and the remaining activity at 1.25 µM ([2]; Well no.=4482) was 95.9%.
Work on COc1ccc(S(=O)(=O)Nc2cccnc2Nc2ccc(O)cc2)cc1 [ABT-751] yielded a remaining activity at 3.75 µM ([1]; Well no.=5226) of 92.1% and a remaining activity at 1.25 µM ([2]; Well no.=5226) of 91.8%.
Work on O=C(c1cc2cc(O)ccc2[nH]1)c1cc2cc(O)ccc2[nH]1 [Flt-3 Inhibitor II] yielded a remaining activity at 3.75 µM ([1]; Well no.=2409) of 110% and a remaining activity at 1.25 µM ([2]; Well no.=2409) of 109%.
CCCCCC(=O)c1c(O)c(Cl)c(OC)c(Cl)c1O [1-(3,5-dichloro-2,6-dihydroxy-4-methoxyphenyl)-1-hexanone] gave a remaining activity at 3.75 µM ([1]; Well no.=5626) of 102% and a remaining activity at 1.25 µM ([2]; Well no.=5626) of 99.3%.
COC(=O)[C@H]1[C@@H](O)[C@@]2(O)c3c(OC)cc(O[C@@H]4O[C@@H]([C@H](O)CO)CO[C@H]4OC)cc3O[C@@]2(c2ccc(OC)cc2)[C@@H]1c1ccccc1 [Silvestrol] was tested, and the remaining activity at 3.75 µM ([1]; Well no.=7120) was 101% and the remaining activity at 1.25 µM ([2]; Well no.=7120) was 103%.
O=C1Nc2ccccc2C1=O [Isatin] was tested, and the remaining activity at 3.75 µM ([1]; Well no.=8350) was 95.1% and the remaining activity at 1.25 µM ([2]; Well no.=8350) was 95.6%.
Compound CC1=C(C(=O)OC(C)C)C(c2cccc([N+](=O)[O-])c2)C(C(=O)OC2CN(C(c3ccccc3)c3ccccc3)C2)=C(N)N1 (stereo not shown) [Azelnidipine] has a remaining activity at 3.75 µM ([1]; Well no.=5275) of 93.3% and a remaining activity at 1.25 µM ([2]; Well no.=5275) of 97.2%.
CCCN(CCC)C1CCc2cccc(O)c2C1 (racemic) showed a remaining activity at 3.75 µM ([1]; Well no.=470) of 98.3% and a remaining activity at 1.25 µM ([2]; Well no.=470) of 99.9%.
Compound FC(F)(F)c1ccc(CNc2ccc(Cc3c[nH]c4ncccc34)cn2)cc1 [5-((1H-pyrrolo[2,3-b]pyridin-3-yl)methyl)-N-(4-(trifluoromethyl)benzyl)pyridin-2-amine] has a remaining activity at 3.75 µM ([1]; Well no.=6012) of 102% and a remaining activity at 1.25 µM ([2]; Well no.=6012) of 104%.
CC(C)CCC[C@H](C)[C@H]1CC[C@H]2[C@@H]3CCC4=CC(=NO)CC[C@]4(C)[C@H]3CC[C@]12C [(20S)-cholest-4-en-3-one oxime] showed a remaining activity at 3.75 µM ([1]; Well no.=5966) of 96.1% and a remaining activity at 1.25 µM ([2]; Well no.=5966) of 94.3%.
Compound O=C(O)c1ccc(SC2=NS(=O)(=O)c3ccccc32)cc1 [4-((1,1-dioxidobenzo[d]isothiazol-3-yl)thio)benzoic acid] has a remaining activity at 3.75 µM ([1]; Well no.=5526) of 102% and a remaining activity at 1.25 µM ([2]; Well no.=5526) of 97.8%.
Compound Cn1c(=O)c2c(ncn2CC(O)CO)n(C)c1=O (stereo not shown) [Diphylline] has a remaining activity at 3.75 µM ([1]; Well no.=7387) of 105%, a remaining activity at 3.75 µM ([1]; Well no.=8273) of 98.7% and a remaining activity at 1.25 µM ([2]; Well no.=7387) of 106%. For the same compound, the remaining activity at 1.25 µM ([2]; Well no.=8273) was 101%.
